A word on the IC50: it is the point on the concentration scale where inhibition reaches its midpoint.

Series [1] concerns Jurkat T cells and human PBLs. The series can be described thus: IL-2 secretion from activated T cells (ELISA). The format is cell-based. To be noted: for IC50: Jurkat T cells and human PBLs, PMA/A23187 stimulation, supernatants after 36 hours, ELISA, read-out: IC50 of inhibition of IL-2 secretion. On the procedure:
(§1) Jurkat T cells (5×10^5) or human PBLs (1×10^6) were stimulated with anti-CD3 (OKT3, 10 μg/ml)/CD28 (2 μg/ml) or PMA (100 nM)/A23187 (1 μM). For anti-CD3/CD28 stimulation, cells were placed on a culture dish coated with anti-CD3 antibody, and were then treated with anti-CD28 (2 μg/ml) antibody. For superantigen stimulation, T cells were incubated with SEE (1 μg/ml)-pulsed Raji B cells. For pre- or post-treatment experiments, various concentrations of 4H3MC or HCA were added 30 minutes or 60 minutes before stimulation.
Jurkat T cells or human PBLs were stimulated in the same manner as described above with respect to T-cell stimulation and treatment with 4H3MC or HCA. At the indicated time points, the supernatants were collected, and the concentrations of IL-2 in the supernatants were measured using a Duo set Human IL-2 ELISA kit (R&D Systems).
For orientation: ELISA stands for enzyme-linked immunosorbent assay.

The test system of a further series is PKC. The series can be described thus: PKC activity measurement in Jurkat T cell lysate (ELISA-based kinase assay). The format is biochemical, human. To be noted: Jurkat T cell cytosol fraction, compound 0.01-50 μM, PMA 100 nM. As for the experimental part:
Jurkat T cells (1×10^6) were suspended in lysis buffer (1% Triton X-100, 150 mM NaCl, 20 mM Tris pH 7.5, protease inhibitor, phosphatase inhibitor), and then kept at 4° C. for 1 hour and centrifuged at 14,000×g for 30 minutes. Cell lysate was incubated with 4H3MC ([…]), HCA ([…]) or STSN (10 nM) at 4° C. for 30 minutes. PMA (100 nM) was added, and PKC activity was measured with a nonradioactive protein kinase assay based on ELISA. The assay was developed with tetramethylbenzidine substrate, and the color developed proportionally to PKC phosphotransferase activity. The intensity of the color was measured at 450 nm. The data were expressed as relative kinase activity.

Series [2] has as its system Jurkat T cells and human PBLs. Kind of series: IL-2 mRNA expression in activated T cells (real-time PCR). The class given is cell-based. On the procedure:
as §1
Total RNA was isolated from Jurkat T cells using TRIZOL reagent (JBI, Korea). Reverse transcription of the RNA was performed using RT Pre-Mix (Intron, Korea). The primers and PCR conditions were as follows: […]
The amplification profile was composed of denaturation at 94° C. for 30 seconds, annealing at 60° C. for 20 seconds, and extension at 72° C. for 40 seconds. 30 cycles were preceded by denaturation at […] for 7 minutes. In some experiments, the expression levels of IL-2 mRNA were evaluated by real-time RT-PCR. Total RNA was isolated and cDNA was synthesized as described above. PCR amplification was performed in Step One Real-time PCR system (Applied Biosystems, Foster city, CA) for continuous fluorescence detection system using SYBR (Takara, Japan). Each PCR reaction was performed under the following conditions: 94° C. for 30 sec, 60° C. for 30 sec and 72° C. for 30 sec, plate read (detection of fluorescent product) for cycles, followed by extension at 72° C. for 7 min. Melting curve analysis was done to characterize the double-stranded DNA product. The levels of IL-2 mRNA normalized for GAPDH were expressed as fold changes relative to that of untreated controls. All experiments were performed at least three times.
For orientation: Real-time PCR tracks product formation cycle by cycle.

In the next series the test system is Jurkat T cells. Kind of series: Cell death assay (microscopy, 7-AAD/annexin V flow cytometry, Hoechst staining). The class given is cell-based, human. To be noted: 16 hours. On the procedure:
Cell death of Jurkat T cells was examined using a double staining method with 7-AAD and annexin V-PE. Jurkat T cells (1×10^6) were indicated concentrations of 4H3MC for 16 hours, and then suspended in 200 μl of HBSS buffer comprising 7-AAD (1 μg/ml) and were incubated at 37° C. for 10 minutes. After 10 minutes, the cells were incubated with 200 μl of HBSS buffer comprising V-PE (20 μg/ml) and analyzed immediately on a BD FACS Canto™ II Flow Cytometer (BD Biosciences). All experiments were performed at least three times.
Jurkat T cells were treated with 10 μM of 4H3MC for 16 hours, and then pelleted onto a PLL-coated cover glass slide (18-mm diameter; Fisher Scientific, Pittsburgh, Pa.) using a cytospin centrifuge. The pelleted cells were fixed in 2% para-formaldehyde at room temperature for 10 minutes, and then washed three times with PBS. As control, cells were stained with TRITC-phalloidin for detecting actin. The slide was incubated for 2 minutes in PBS containing Hoechst dye (1:105) at room temperature, and then the cells were examined using an FV1000 confocal microscope.

In a further series the target is T1, PKCθ (Homo sapiens, UniProt Q04759).
T1 construct: endogenous in cells; host or cells: Jurkat T cells conjugated with SEE-pulsed Raji B cells
T1 sequence (Q04759 whole entry): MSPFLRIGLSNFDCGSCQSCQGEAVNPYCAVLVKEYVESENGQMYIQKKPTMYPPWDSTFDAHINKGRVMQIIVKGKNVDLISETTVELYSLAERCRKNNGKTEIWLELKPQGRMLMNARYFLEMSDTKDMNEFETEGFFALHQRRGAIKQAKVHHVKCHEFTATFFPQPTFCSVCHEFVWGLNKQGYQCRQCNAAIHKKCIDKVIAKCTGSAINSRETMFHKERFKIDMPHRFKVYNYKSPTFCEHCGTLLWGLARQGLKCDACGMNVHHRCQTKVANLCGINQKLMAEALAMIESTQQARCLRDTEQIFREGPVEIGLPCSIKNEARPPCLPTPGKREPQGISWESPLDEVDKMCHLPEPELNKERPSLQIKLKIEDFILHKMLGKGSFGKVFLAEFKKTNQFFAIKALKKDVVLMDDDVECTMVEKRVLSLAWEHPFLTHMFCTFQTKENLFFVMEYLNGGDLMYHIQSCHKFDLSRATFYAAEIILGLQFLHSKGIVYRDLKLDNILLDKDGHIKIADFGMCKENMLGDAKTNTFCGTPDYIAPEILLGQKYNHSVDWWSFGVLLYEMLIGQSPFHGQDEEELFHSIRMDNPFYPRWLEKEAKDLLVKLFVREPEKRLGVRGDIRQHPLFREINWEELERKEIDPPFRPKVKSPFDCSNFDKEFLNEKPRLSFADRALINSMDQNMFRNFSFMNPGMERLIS
The series can be described thus: PKCθ phosphorylation and accumulation at the immunological synapse (confocal imaging). The format is cell-based. To be noted: Jurkat T cells pretreated with 4H3MC 10 μM, conjugates with SEE-pulsed Raji B cells. On the procedure:
Jurkat T cells were pretreated with 10 μM of 4H3MC for 1 hour, while Raji B cells were stained with 1 μM of CMFDA green tracker for 30 minutes. After washing twice with RPMI medium, Raji B cells were incubated with SEE (1 μg/ml) at 37° C. for 30 minutes. SEE-conjugated Raji B cells were incubated with 4H3MC-treated Jurkat T cells for 10 minutes to form an immunological synapse, and then placed on glass coverslips. The cells were fixed with 2% paraformaldehyde and washed with PBS. After washing, the cells were permeabilized with 0.1% TritonX-100 and incubated with primary antibodies (antibodies against CD3, LFA-1, t-PKCθ, p-PKCθ) overnight. On the next day, the cells were washed with PBS, and then incubated with secondary antibodies (cy3-conjugated goat anti-mouse IgG, Texas Red-conjugated goat anti-rabbit IgG antibodies) at room temperature for 1 hour. After washing, the cells were placed on a slide glass using Dako fluorescent mounting medium (Dako, Denmark), followed by drying. The dried slide samples were examined with an FV1000 confocal laser scanning microscope (Olympus), and CD3, LFA-1, t-PKCθ and p-PKCθ accumulation at the immunological synapse was observed and analyzed.

A further series concerns PKCθ, ERK and p38 kinase. Kind of series: Western blot of phospho-PKCθ, ERK and p38 in activated Jurkat T cells. The format is cell-based, human. On the procedure:
as §1
Jurkat T cells were lysed by cold lysis buffer (1% Triton X-100, 150 mM NaCl, 20 mM Tris, pH 7.5, protease inhibitor and phosphatase inhibitor) for 1 hour, and then centrifuged at 4° C. at 16,000×g for 30 minutes. About 100 μg of the extract lysate was separated through 10% SDS-PAGE. Proteins were transferred into a nitrocellulose membrane by means of Trans-Blot SD semidry transfer cell (Bio-Rad, Hercules, Calif.). The membrane was blocked in 5% skim milk for 1 hour, washed, and then incubated with the indicated antibodies in 3% skim milk overnight. Excess primary antibody was removed by washing the membrane with TBST, and then the membrane was incubated with peroxidase-conjugated secondary antibody for 2 hours. After washing with TBST, bands were visualized by Western blotting detection reagent and then exposed to x-ray film.
A general note: Immunoblotting shows a protein as a band on a membrane.

The next series relates to AP-1, NF-κB and NFAT. Kind of series: AP-1, NF-κB and NFAT luciferase activity assays. The format is cell-based, human. To be noted: transfected Jurkat T cells, 4H3MC 10 μM pretreatment 1 hour, PMA/A23187 16 hours. On the procedure: Jurkat T cells (1.5×10^6) were transfected with 100 μl of Amaxa's Nucleofector solution (Amaxa, Germany) containing 3 μg of pGL3-AP-1, pGL3-NF-κB or pGL3-NFAT Luc plasmids, and then the cells were transferred to complete medium and cultured at 37° C. After 48 hours of transfection, the transfected cells were pretreated with 4H3MC (10 μM) for 1 hour, and then stimulated with PMA/A23187 for 16 hours. After […], the cells were harvested and lysed with a lysis buffer for luciferase assay (Promega, Madison, Wis.). Cellular debris was removed from lysed proteins by centrifugation at 16,000×g at 4° C. for 30 minutes. Luciferase activity was measured with a Centro LB 960 Luminometer (Berthold Technologies, Germany).

For series [3], the system named is atopic skin disease BALB/c mice. The series can be described thus: DNCB/mite extract-induced atopic skin disease in mice. The format is in vivo. To be noted: 4H3MC 50 mg/kg orally every day for 4 weeks. On the procedure: With reference to a previously reported publication, atopic skin disease was induced using DNCB and a mite extract. BALB/c mice were divided into four groups, and then the skin was peeled off by touching each earlobe five times with a surgical tape (Seo-il Chemistry, Hwa-sung, Korea). On day 0, 20 μl of DNCB (1%) was applied to each peeled earlobe, and on day 4, 20 μl of a mite extract (10 mg/mL) was applied. DNCB and the mite extract were alternately applied once a week for 4 weeks. From day 1, 4H3MC (50 mg/kg) was administered orally everyday for 4 weeks. Using a thickness meter (Kori Seiki MFG Co., Japan), the ear thickness was measured at 24 hours after application of DNCB or the mite extract. After 28 days, blood was sampled, and the serum portions were stored at […]. After blood sampling, the ear tissue was cut and used for histopathological analysis.

Where [4] appears, read: Jurkat T cells pre-activated 30 minutes with anti-CD3/CD28 or PMA/A23187, then 4H3MC 10 μM.
[5] abbreviates: Jurkat T cells, 4H3MC 10 μM pretreatment 1 hour, anti-CD3/CD28 or PMA/A23187.

As to `O=C(O)C=Cc1ccc(O)cc1` [HCA, p-hydroxycinnamic acid, reference compound], the half-inhibitory concentration (IC50) in series [1] is 15 to 18 µM. In addition, the PKC activity entry with PKC is recorded as “inhibit PKC activity in vitro”.

Take `COc1cc(C=CC=O)ccc1O` [4H3MC, 4-Hydroxy-3-methoxycinnamaldehyde]: the “IL-2 expression (mRNA)” value in series [2] (Jurkat T cells and human PBLs pretreated 1 hour with 4H3MC 0-250 μM, then PMA/A23187 or anti-CD3/CD28 for 6 hours) was “significantly inhibited IL-2 expression in a concentration-dependent manner”. In addition, the “concentration at which dramatic inhibition of IL-2 expression was seen” value in series [2] (Jurkat T cells and human PBLs, pretreatment 1 hour, PMA/A23187 or anti-CD3/CD28) lay in the range of 2 to 10 µM. Further, in series [2] (setting [4]), the “IL2 mRNA expression, post-treatment” value is “effectively reduced the expression of IL2 mRNA in pre-activated Jurkat T cells”. For the same molecule, the “time-dependent IL-2 mRNA expression” value in series [2] (Jurkat T cells, 4H3MC 10 μM pretreatment 1 hour, anti-CD3/CD28 or PMA/A23187 for various times) is reported as “inhibited IL-2 mRNA expression at the early time point (about 3 hours) after stimulation which lasted over 6 hours”. Also, the concentration for half-maximal inhibition (IC50) in series [1] was roughly 2.5 µM. For the same molecule, the “fold effectiveness versus HCA in inhibition of IL-2 in T cells” value in series [1] (comparison of IC50 values of 4H3MC and HCA) is on record as roughly 5 fold. The “time-dependent IL-2 secretion” value in series [1] (human PBLs, 4H3MC 10 μM pretreatment 1 hour, PMA/A23187) is “significantly reduced”. The apoptosis or necrosis result in the series on Jurkat T cells (10-100 μM) was “did not induce apoptosis or necrosis”. Moreover, the “apoptosis or necrosis by Hoechst staining” value in the series on Jurkat T cells (effective concentration (10 μM)) is given as “does not induce apoptosis or necrosis at its effective concentration”. Further, the necrosis entry in the series on Jurkat T cells (high concentrations (250 μM)) is given as “induced necrosis in some Jurkat T cells”. Also, the PKC activity result in the series on PKC is given as “significantly inhibited PKC-specific activity with the lower effective concentration than HCA”. For the same molecule, the “phosphorylation and accumulation of PKCθ at the IS” value on PKCθ is on record as “significantly reduced the phosphorylation as well as accumulation of PKCθ at the IS”. Moreover, the “phosphorylated forms of PKCθ, ERK and p38, post-treatment” value with PKCθ, ERK and p38 kinase (setting [4]) is “significantly reduced”. In the series on PKCθ, ERK and p38 kinase (setting [5]), the “phosphorylation of ERK and p38” value is “dramatically reduced anti-CD3/CD28- and PMA/A23187-induced phosphorylation of ERK and p38”; the “phosphorylation of PKCθ” value is “significantly blocked phosphorylation of PKCθ”. Also, the “luciferase activities of NF-κB, AP-1 and NFAT” value in the series with AP-1, NF-κB and NFAT is “considerably reduced PMA/A23187-induced luciferase activities of NF-κB, AP-1 and NFAT”. Besides, in series [3], the “ear symptoms (flushed and swollen) 28 days after induction” value is recorded as “such symptoms were alleviated”; the ear thickness entry was “became significantly thinner from 8 days”.

These data come from patent US20170252306A1, “Pharmaceutical Compositions for Preventing and Treating Th1 or Th2 mediated Immune Disease Comprising 4H3MC(4-Hydroxy-3-methoxycinnamaldehyde) as an Active Ingredient” (GWANGJU INSTITUTE OF SCIENCE AND TECHNOLOGY, priority 2016, published 2017).
